Reference: PubChem BioAssay (NCI)
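Dose response: 5 concentrations. Exposure: 48 h. Format: 96-well plates. Endpoint: linear interpolation; highest concentration if not reached. TGI marks complete inhibition of growth.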

Tests used:
Experiment in all cases: inhibition of tumour cell growth, NCI panel, 48 h
A498 renal = system: A498 renal
COLO 205 colon = system: COLO 205 colon
DU-145 prostate = system: DU-145 prostate
HCC-2998 colon = system: HCC-2998 colon
HOP-62 NSCLC = system: HOP-62 NSCLC
NCI-H460 lung = system: NCI-H460 lung
OVCAR-5 ovarian = system: OVCAR-5 ovarian
SF-295 CNS = system: SF-295 CNS
SNB-19 CNS = system: SNB-19 CNS
SNB-75 CNS = system: SNB-75 CNS
TK-10 renal = system: TK-10 renal
UACC-62 melanoma = system: UACC-62 melanoma

For `COc1cc(Cn2c3c(c4c(CN(C)C)c(O)ccc42)C(=O)c2ccccc2C3=O)cc(OC)c1`, the TGI (A498 renal) was 22.4 µM, the TGI (COLO 205 colon) was 85.3 µM and the TGI (DU-145 prostate) was > 100 µM. The TGI (HCC-2998 colon) was 34.5 µM, the TGI (HOP-62 NSCLC) was 30.9 µM and the TGI (NCI-H460 lung) was 32.3 µM. For the same compound, the TGI (OVCAR-5 ovarian) was 42.5 µM, the TGI (SF-295 CNS) was 44 µM and the TGI (SNB-19 CNS) was 36.9 µM. The TGI (SNB-75 CNS) was 8.07 µM, the TGI (TK-10 renal) was 74.2 µM and the TGI (UACC-62 melanoma) was 51.9 µM.

`CC(C)(C)OC(=O)N1C(C2=COc3ccccc3O2)=COc2ccccc21` gave a TGI (A498 renal) of 40.2 µM, a TGI (COLO 205 colon) of 38.2 µM and a TGI (DU-145 prostate) of 78.2 µM. The TGI (HCC-2998 colon) was 37.2 µM, the TGI (HOP-62 NSCLC) was 45.3 µM and the TGI (NCI-H460 lung) was > 100 µM. For the same compound, the TGI (OVCAR-5 ovarian) was 99.1 µM, the TGI (SF-295 CNS) was 83.5 µM and the TGI (SNB-19 CNS) was > 100 µM. For the same compound, the TGI (SNB-75 CNS) was > 100 µM, the TGI (TK-10 renal) was > 100 µM and the TGI (UACC-62 melanoma) was 32.6 µM.

In the case of `COC(=O)C12CCC(C(=O)OC)(Cc3c(c4ccccc4n3S(=O)(=O)c3ccccc3)C1)C2=O` (stereo unspecified), the TGI (A498 renal) is reported as > 100 µM, the TGI (COLO 205 colon) is reported as > 100 µM and the TGI (DU-145 prostate) is reported as > 100 µM. For the same compound, the TGI (HCC-2998 colon) was > 100 µM, the TGI (HOP-62 NSCLC) was > 100 µM and the TGI (NCI-H460 lung) was > 100 µM. For the same compound, the TGI (OVCAR-5 ovarian) was > 94.6 µM, the TGI (SF-295 CNS) was > 100 µM and the TGI (SNB-19 CNS) was > 100 µM. For the same compound, the TGI (SNB-75 CNS) was > 100 µM, the TGI (TK-10 renal) was > 100 µM and the TGI (UACC-62 melanoma) was > 100 µM.

In the case of `COc1ccc2c(c1)/C(=C(\C(Cl)=C(\Cl)N1CCCCC1)[N+](=O)[O-])N2`, the TGI (A498 renal) is reported as > 100 µM, the TGI (COLO 205 colon) is reported as > 100 µM and the TGI (DU-145 prostate) is reported as > 100 µM. For the same compound, the TGI (HCC-2998 colon) was > 100 µM, the TGI (HOP-62 NSCLC) was > 100 µM and the TGI (NCI-H460 lung) was > 100 µM. The TGI (OVCAR-5 ovarian) was > 100 µM, the TGI (SF-295 CNS) was > 100 µM and the TGI (SNB-19 CNS) was > 100 µM. The TGI (SNB-75 CNS) was > 100 µM, the TGI (TK-10 renal) was > 100 µM and the TGI (UACC-62 melanoma) was > 100 µM.

For `COc1ccc2c(c1)/C(=C(\C(Cl)=C(Cl)Cl)[N+](=O)[O-])N2`, the TGI (A498 renal) was > 100 µM, the TGI (COLO 205 colon) was > 100 µM and the TGI (DU-145 prostate) was > 100 µM. For the same compound, the TGI (HCC-2998 colon) was > 100 µM, the TGI (HOP-62 NSCLC) was > 100 µM and the TGI (NCI-H460 lung) was > 100 µM. The TGI (OVCAR-5 ovarian) was > 100 µM, the TGI (SF-295 CNS) was > 100 µM and the TGI (SNB-19 CNS) was > 100 µM. For the same compound, the TGI (SNB-75 CNS) was > 100 µM, the TGI (TK-10 renal) was > 100 µM and the TGI (UACC-62 melanoma) was > 100 µM.

`CCCCC1Cc2cc(O)ccc2-c2n1c1cc(O)ccc1[n+]2C` (stereo unspecified) (tested in a mixture with another compound) was tested, and the TGI (A498 renal) was > 100 µM, the TGI (COLO 205 colon) was 44.2 µM and the TGI (DU-145 prostate) was > 100 µM. The TGI (HCC-2998 colon) was > 100 µM, the TGI (HOP-62 NSCLC) was > 100 µM and the TGI (NCI-H460 lung) was > 100 µM. For the same compound, the TGI (OVCAR-5 ovarian) was > 100 µM, the TGI (SF-295 CNS) was > 60.1 µM and the TGI (SNB-19 CNS) was > 39.8 µM. The TGI (SNB-75 CNS) was > 100 µM, the TGI (TK-10 renal) was > 100 µM and the TGI (UACC-62 melanoma) was > 81.5 µM.

For `Cc1c2c(c(C)c3c[n+](C)ccc13)Oc1ccccc1O2`, the TGI (A498 renal) was > 100 µM, the TGI (COLO 205 colon) was > 52.9 µM and the TGI (DU-145 prostate) was > 100 µM. For the same compound, the TGI (HCC-2998 colon) was 19.8 µM, the TGI (HOP-62 NSCLC) was 33.4 µM and the TGI (NCI-H460 lung) was 16.4 µM. The TGI (OVCAR-5 ovarian) was > 31.6 µM, the TGI (SF-295 CNS) was > 80.4 µM and the TGI (SNB-19 CNS) was 12.7 µM. The TGI (SNB-75 CNS) was 17.5 µM, the TGI (TK-10 renal) was > 100 µM and the TGI (UACC-62 melanoma) was 27.4 µM.

For `Oc1c(C(O)(c2ccccc2)c2ccc3ccccc3c2O)ccc2ccccc12`, the TGI (A498 renal) was 30.6 µM, the TGI (COLO 205 colon) was 31.9 µM and the TGI (DU-145 prostate) was 34.6 µM. For the same compound, the TGI (HCC-2998 colon) was 20 µM, the TGI (HOP-62 NSCLC) was 35.6 µM and the TGI (NCI-H460 lung) was 22.3 µM. The TGI (OVCAR-5 ovarian) was 38.3 µM, the TGI (SF-295 CNS) was 47.9 µM and the TGI (SNB-19 CNS) was 28.7 µM. The TGI (SNB-75 CNS) was 34.5 µM, the TGI (TK-10 renal) was 26.8 µM and the TGI (UACC-62 melanoma) was 22.8 µM.
